According to PMC9127750, “Structure-based design of CDC42 effector interaction inhibitors for the treatment of cancer” (Cell reports, 2022):
Where “and” joins values, the source holds several entries; their conditions need not be identical. Equal values may be shown once.

System: WM3248 melanoma cells, 486 antibodies
Assay: Reverse phase protein arrays (RPPA)
Type: cell-based, Human
Source text: Pellets were snap frozen in liquid nitrogen and shipped to MD Anderson Cancer Center core RPPA facility for RPPA analysis (Table S5). Three biological replicates for each sample were generated.
Nomenclatures on the RPPA heatmaps: name_of_antibody.species_of_antibody.status_of_antibody. V - antibody validated; C - validation of antibody in progress; Q - antibody nonspecific; E – under evaluation; antibodies raised in M - mouse, G - goat, R - rabbit, or T - rat.

CN(C)c1cccc(Nc2cc(-c3ccccc3)nc(C3CCNCC3)n2)c1 [ARN22089, N1,N1-dimethyl-N3-(6-phenyl-2-(piperidin-4-yl)pyrimidin-4-yl)benzene-1,3-diamine]
CD31.M.V normalized signal (Norm_10 Average): 0.960
CD38.R.C normalized signal (Norm_10 Average): 0.936
CD45.M.V normalized signal (Norm_10 Average): 0.964
CD68.M.C normalized signal (Norm_10 Average): 1.001
CD134.R.V normalized signal (Norm_10 Average): 0.970
CD171.M.V normalized signal (Norm_10 Average): 0.831
CDK1_pT14.R.C normalized signal (Norm_10 Average): 0.888
CDK9.R.V normalized signal (Norm_10 Average): 0.988
CDKN2A.R.C normalized signal (Norm_10 Average): 0.963
CDT1.R.V normalized signal (Norm_10 Average): 0.925
CENP.A.R.V normalized signal (Norm_10 Average): 0.967
CHD1L.R.V normalized signal (Norm_10 Average): 1.025
COG3.R.V normalized signal (Norm_10 Average): 1.013
CRABP1.R.C normalized signal (Norm_10 Average): 0.993
CRABP2.R.V normalized signal (Norm_10 Average): 0.915
CSK.R.C normalized signal (Norm_10 Average): 0.971
Calnexin.R.V normalized signal (Norm_10 Average): 1.021
Caspase.3.cleaved.R.C normalized signal (Norm_10 Average): 0.926
Caspase.7.cleaved..R.C normalized signal (Norm_10 Average): 1.030
Caspase.8.M.Q normalized signal (Norm_10 Average): 0.998
Caspase.8.cleaved.R.C normalized signal (Norm_10 Average): 0.924
Cdc6.R.V normalized signal (Norm_10 Average): 0.962
Cdc42.R.C normalized signal (Norm_10 Average): 0.966
Chk1.M.C normalized signal (Norm_10 Average): 0.942
Chk1_pS296.R.V normalized signal (Norm_10 Average): 0.948
Chk1_pS345.R.C normalized signal (Norm_10 Average): 1.019
Chk2.M.V normalized signal (Norm_10 Average): 0.971
Chk2_pT68.R.C normalized signal (Norm_10 Average): 0.963
Claudin.7.R.V normalized signal (Norm_10 Average): 1.252
Collagen.VI.R.V normalized signal (Norm_10 Average): 1.085
Complex.II.Subunit.M.V normalized signal (Norm_10 Average): 1.079
Connexin.43.R.C normalized signal (Norm_10 Average): 1.004
Cox2.R.C normalized signal (Norm_10 Average): 1.057
Creb.R.C normalized signal (Norm_10 Average): 0.975
CtIP.R.V normalized signal (Norm_10 Average): 0.953
Cyclin.B1.R.V normalized signal (Norm_10 Average): 0.844
Cyclin.D1.R.C normalized signal (Norm_10 Average): 1.008
Cyclin.D3.M.V normalized signal (Norm_10 Average): 0.934
Cyclophilin.F.M.V normalized signal (Norm_10 Average): 0.980
DAPK1_pS308.M.C normalized signal (Norm_10 Average): 1.809
DAPK2.R.C normalized signal (Norm_10 Average): 0.982
DDB.1.R.V normalized signal (Norm_10 Average): 0.823
DDR1.R.V normalized signal (Norm_10 Average): 1.020
DDR1_pY513.R.C normalized signal (Norm_10 Average): 1.009
DJ1.R.V normalized signal (Norm_10 Average): 0.997
DM.Histone.H3.R.V normalized signal (Norm_10 Average): 0.900
DM.K9.Histone.H3.M.V normalized signal (Norm_10 Average): 0.982
DNA.Ligase.IV.R.C normalized signal (Norm_10 Average): 0.937
DNA_POLG.R.V normalized signal (Norm_10 Average): 1.080
c.Jun_pS73.R.V normalized signal (Norm_10 Average): 0.793
c.Kit.R.V normalized signal (Norm_10 Average): 1.213
c.Met_pY1234_Y1235.R.V normalized signal (Norm_10 Average): 0.933
c.Myc.R.C normalized signal (Norm_10 Average): 1.350
cdc2_pY15.R.C normalized signal (Norm_10 Average): 0.855
cdc25C.R.V normalized signal (Norm_10 Average): 0.849
C.Raf.R.C normalized signal (Norm_10 replicates): 1.081 and 0.699 and 0.805
C.Raf_pS338.R.V normalized signal (Norm_10 replicates): 0.823 and 0.996
CA9.R.C normalized signal (Norm_10 replicates): 0.873 and 0.916
CD2.M.C normalized signal (Norm_10 replicates): 0.952 and 0.983 and 0.955
CD4.R.V normalized signal (Norm_10 replicates): 0.995 and 0.882 and 0.915
CD5.M.C normalized signal (Norm_10 replicates): 0.953 and 1.022
CD20.R.C normalized signal (Norm_10 replicates): 0.859 and 1.349 and 1.680
CD26.R.V normalized signal (Norm_10 replicates): 0.886 and 0.919 and 1.217
CD29.M.V normalized signal (Norm_10 replicates): 0.978 and 0.970
CD31.M.V normalized signal (Norm_10 replicates): 0.934 and 1.028 and 0.917
CD38.R.C normalized signal (Norm_10 replicates): 1.013 and 0.750 and 1.046
CD44.R.C normalized signal (Norm_10 replicates): 0.886 and 1.140
CD45.M.V normalized signal (Norm_10 replicates): 0.989 and 0.991
CD49b.M.V normalized signal (Norm_10 replicates): 1.113 and 1.053
CD68.M.C normalized signal (Norm_10 replicates): 0.973 and 0.957
CD74.M.V normalized signal (Norm_10 replicates): 0.883 and 1.031 and 0.993
CD134.R.V normalized signal (Norm_10 replicates): 0.926 and 1.018 and 0.966
CD171.M.V normalized signal (Norm_10 replicates): 0.567 and 1.011 and 0.915
CDK1_pT14.R.C normalized signal (Norm_10 replicates): 0.950 and 0.703 and 1.011
CDK9.R.V normalized signal (Norm_10 replicates): 0.925 and 1.065 and 0.973
CDKN2A.R.C normalized signal (Norm_10 replicates): 0.890 and 1.007 and 0.992
CDT1.R.V normalized signal (Norm_10 replicates): 0.844 and 1.019
CENP.A.R.V normalized signal (Norm_10 replicates): 0.909 and 0.955
CHD1L.R.V normalized signal (Norm_10 replicates): 0.986 and 0.996
CIITA.R.C normalized signal (Norm_10 replicates): 0.878 and 1.138 and 1.266
COG3.R.V normalized signal (Norm_10 replicates): 1.048 and 1.011 and 0.981
CRABP1.R.C normalized signal (Norm_10 replicates): 0.873 and 1.131 and 0.976
CRABP2.R.V normalized signal (Norm_10 replicates): 0.772 and 1.150 and 0.822
CREB_pS133.R.C normalized signal (Norm_10 replicates): 1.250 and 0.794 and 1.214
CSK.R.C normalized signal (Norm_10 replicates): 0.836
Calnexin.R.V normalized signal (Norm_10 replicates): 0.966 and 1.158 and 0.937
Caspase.3.cleaved.R.C normalized signal (Norm_10 replicates): 1.008 and 0.891 and 0.879
Caspase.7.cleaved..R.C normalized signal (Norm_10 replicates): 0.971 and 1.258 and 0.862
Caspase.8.M.Q normalized signal (Norm_10 replicates): 0.852 and 1.055
Caspase.8.cleaved.R.C normalized signal (Norm_10 replicates): 0.985 and 0.881 and 0.907
Caveolin.1.R.V normalized signal (Norm_10 replicates): 0.713 and 1.122 and 1.012
Cdc6.R.V normalized signal (Norm_10 replicates): 0.858 and 0.962
Cdc42.R.C normalized signal (Norm_10 replicates): 0.895 and 1.029 and 0.973
Chk1.M.C normalized signal (Norm_10 replicates): 0.842 and 0.983 and 1.001
Chk1_pS296.R.V normalized signal (Norm_10 replicates): 1.115 and 0.789 and 0.942
Chk1_pS345.R.C normalized signal (Norm_10 replicates): 1.171 and 0.894 and 0.992
Chk2.M.V normalized signal (Norm_10 replicates): 0.819 and 1.005
Chk2_pT68.R.C normalized signal (Norm_10 replicates): 1.200 and 0.766 and 0.922
Claudin.7.R.V normalized signal (Norm_10 replicates): 0.930 and 1.663 and 1.163
Collagen.VI.R.V normalized signal (Norm_10 replicates): 1.420 and 0.935 and 0.899
Complex.II.Subunit.M.V normalized signal (Norm_10 replicates): 0.889 and 1.275
Connexin.43.R.C normalized signal (Norm_10 replicates): 1.260 and 0.815
Coup.TFII.R.C normalized signal (Norm_10 replicates): 0.934 and 0.868
Cox2.R.C normalized signal (Norm_10 replicates): 1.023 and 1.193 and 0.953
Cox.IV.R.V normalized signal (Norm_10 replicates): 0.958 and 0.990 and 0.892
Creb.R.C normalized signal (Norm_10 replicates): 1.051 and 0.927
CtIP.R.V normalized signal (Norm_10 replicates): 1.000 and 0.898 and 0.962
Cyclin.B1.R.V normalized signal (Norm_10 replicates): 0.661 and 0.815 and 1.055
Cyclin.D1.R.C normalized signal (Norm_10 replicates): 0.958 and 1.081 and 0.985
Cyclin.D3.M.V normalized signal (Norm_10 replicates): 0.818 and 0.939
Cyclin.E1.R.V normalized signal (Norm_10 replicates): 0.893
Cyclophilin.F.M.V normalized signal (Norm_10 replicates): 0.808 and 1.114 and 1.018
D.a.Tubulin.R.V normalized signal (Norm_10 replicates): 0.881 and 0.967 and 0.966
DAPK1_pS308.M.C normalized signal (Norm_10 replicates): 1.302 and 1.636 and 2.488
DAPK2.R.C normalized signal (Norm_10 replicates): 0.965 and 1.028 and 0.953
DDB.1.R.V normalized signal (Norm_10 replicates): 0.974 and 0.680 and 0.815
DDR1.R.V normalized signal (Norm_10 replicates): 1.019 and 1.079 and 0.961
DDR1_pY513.R.C normalized signal (Norm_10 replicates): 0.985 and 1.129 and 0.914
DJ1.R.V normalized signal (Norm_10 replicates): 0.990 and 1.026 and 0.974
DM.Histone.H3.R.V normalized signal (Norm_10 replicates): 0.928 and 0.824
DM.K9.Histone.H3.M.V normalized signal (Norm_10 replicates): 0.889 and 1.013
DNA.Ligase.IV.R.C normalized signal (Norm_10 replicates): 0.935 and 0.869 and 1.008
DNA_POLG.R.V normalized signal (Norm_10 replicates): 1.018 and 1.199 and 1.023
c.Jun_pS73.R.V normalized signal (Norm_10 replicates): 0.788 and 0.785 and 0.805
c.Kit.R.V normalized signal (Norm_10 replicates): 1.136 and 1.324
c.Met_pY1234_Y1235.R.V normalized signal (Norm_10 replicates): 0.975 and 0.946 and 0.879
c.Myc.R.C normalized signal (Norm_10 replicates): 2.093 and 1.046
cGAS.R.V normalized signal (Norm_10 replicates): 0.953 and 1.217 and 0.956
cdc2_pY15.R.C normalized signal (Norm_10 replicates): 1.104 and 0.582 and 0.878
cdc25C.R.V normalized signal (Norm_10 replicates): 0.721 and 0.808 and 1.017
MYH11.R.C Average (Norm_20, normalized to Norm_0): 1.248
Myosin.IIa.R.C Average (Norm_20, normalized to Norm_0): 1.147
Myosin.IIa_pS1943.R.V Average (Norm_20, normalized to Norm_0): 1.174
Myt1.R.C Average (Norm_20, normalized to Norm_0): 0.994
N.Cadherin.R.V Average (Norm_20, normalized to Norm_0): 0.988
N.Ras.M.V Average (Norm_20, normalized to Norm_0): 0.878
NAPSIN.A.R.C Average (Norm_20, normalized to Norm_0): 1.011
NDRG1_pT346.R.V Average (Norm_20, normalized to Norm_0): 1.336
NDUFB4.R.V Average (Norm_20, normalized to Norm_0): 1.022
NRF2.R.C Average (Norm_20, normalized to Norm_0): 0.907
Notch1.R.V Average (Norm_20, normalized to Norm_0): 0.937
Notch1.cleaved.R.V Average (Norm_20, normalized to Norm_0): 0.937
Notch3.R.C Average (Norm_20, normalized to Norm_0): 0.994
Oct.4.R.C Average (Norm_20, normalized to Norm_0): 1.121
P.Cadherin.R.C Average (Norm_20, normalized to Norm_0): 1.346
PAI.1.M.V Average (Norm_20, normalized to Norm_0): 0.985
PAICS.R.C Average (Norm_20, normalized to Norm_0): 0.928
PAK1.R.V Average (Norm_20, normalized to Norm_0): 0.872
PAK4.R.V Average (Norm_20, normalized to Norm_0): 0.993
PAK_pS474_S602_S560.R.V Average (Norm_20, normalized to Norm_0): 1.208
PAR.R.C Average (Norm_20, normalized to Norm_0): 2.108
PARG.R.C Average (Norm_20, normalized to Norm_0): 1.394
PARP.R.V Average (Norm_20, normalized to Norm_0): 1.133
PAX6.R.V Average (Norm_20, normalized to Norm_0): 0.967
PAX8.R.C Average (Norm_20, normalized to Norm_0): 0.941
PCNA.M.C Average (Norm_20, normalized to Norm_0): 0.869
PD.1.R.V Average (Norm_20, normalized to Norm_0): 0.984
PD.L1.R.C Average (Norm_20, normalized to Norm_0): 0.970
PDH.M.V Average (Norm_20, normalized to Norm_0): 0.925
PDHA1.R.V Average (Norm_20, normalized to Norm_0): 0.956
PDHK1.R.C Average (Norm_20, normalized to Norm_0): 0.952
PDK1.R.V Average (Norm_20, normalized to Norm_0): 1.116
PDK1_pS241.R.V Average (Norm_20, normalized to Norm_0): 0.965
